Laboratory results published in paper PMC10388362, “Fluorescent Ligands Enable Target Engagement Studies for the Intracellular Allosteric Binding Site of the Chemokine Receptor CXCR2” (Journal of Medicinal Chemistry, 2023).

Key:
CXCR2 = target: T1, CXCR2 (Homo sapiens, UniProt P25025); experiment: Membrane-based NanoBRET saturation assay (CXCR2_Nluc membranes); assay type: binding; conditions: cell-free, membranes from HEK293T cells transiently expressing CXCR2_Nluc; read-out: Kd (equilibrium saturation binding)
T1 construct: Promega pNLF1-C (Nluc) #CXCR20TN00; host or cells: HEK293T, transient transfection (PEI)
T1 sequence (P25025 1-360): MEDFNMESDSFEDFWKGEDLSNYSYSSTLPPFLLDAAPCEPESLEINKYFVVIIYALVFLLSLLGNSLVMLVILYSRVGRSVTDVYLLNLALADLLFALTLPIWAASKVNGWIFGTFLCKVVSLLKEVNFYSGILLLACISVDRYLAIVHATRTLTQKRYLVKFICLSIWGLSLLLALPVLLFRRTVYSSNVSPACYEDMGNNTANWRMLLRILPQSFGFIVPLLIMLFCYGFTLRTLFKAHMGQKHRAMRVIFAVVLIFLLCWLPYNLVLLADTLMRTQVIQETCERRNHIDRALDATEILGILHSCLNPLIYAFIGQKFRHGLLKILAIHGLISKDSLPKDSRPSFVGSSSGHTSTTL
Description: Membranes from HEK293T cells transiently expressing the respective GPCR were prepared as follows. The medium of the transfected cells was refreshed after 24 h before cells were harvested 48 h post-transfection. The growth medium was removed, and the cells were carefully washed with cold phosphate-buffered saline (10 mL per Ø 15 cm dish). The cells were detached with 15 mL of ice-cold Tris-EDTA buffer (10 mM Tris, 0.5 mM EDTA, 5.4 mM KCl, 140 mM NaCl, pH 7.4) and subsequently centrifuged with 218g for 8 min. The supernatant was removed and the cells were resuspended in 10 mL of Tris-EDTA buffer. The cells were lysed with an Ultraturrax (20,000 rpm) used five times for 5 s with a 25 s break on ice in between. The lysate was centrifuged at 50,830g for 18 min at 4 °C. The supernatant was discarded, and the pellet was homogenized in a membrane buffer (50 mM Tris, 1 mM EDTA, 5 mM MgCl2, 100 μg/mL bacitracin, 5 μg/mL soybean trypsin inhibitor, pH 7.4) with a glass-teflon homogenizer. Aliquots of 250 μL were shock-frozen in liquid nitrogen and directly stored at −80 °C. Finally, the protein concentration was determined using the Lowry method.[43]
(§1) For the establishment of our NanoBRET binding assay, we referred to a recently published protocol.[45] The fluorescent ligands (9a–c) were dissolved in DMSO (1 mM) and further diluted to varying concentrations in an assay buffer (50 mM Na2HPO4, 50 mM KH2PO4, pH 7.4, 1 mg/mL saponin, 5% FBS) and 5 μL of these dilutions were pipetted to a 384-well plate. To determine the total binding, 5 μL of the assay buffer was added to the corresponding wells, while 5 μL of a solution of 3 in the assay buffer (final assay concentration: 1 μM) was used to determine nonspecific binding. Then, 20 μL of the membrane preparations diluted in the assay buffer (2 μg total protein/well) were added and the plates were incubated for 90 min at 37 °C. Subsequently, 5 μL of a furimazine solution (Promega, Mannheim, Germany, final assay dilution: 1:5000) was added to each well (final assay volume: 35 μL) before measuring luminescence with a CLARIOstar microplate reader using 620/10 and 475/30 nm emission filters after 5 min of incubation in the dark. Bioluminescence resonance energy transfer (BRET) was determined as the ratio of acceptor fluorescence and donor luminescence. The algorithms for one-site saturation binding from PRISM9.5 (GraphPad) were utilized to analyze total, nonspecific, and specific binding. Specific binding signals were calculated as a difference of total and nonspecific binding. If required, netBRET values were calculated as the difference between total BRET values and the values obtained in the absence of a fluorescent ligand. For selectivity studies with CCR2, CCR7, CCR9, and CXCR1, we modified the procedure described above.

CCR9 = target: T2, CCR9 (Homo sapiens, UniProt P51686); experiment: Membrane-based NanoBRET saturation assay, selectivity (CCR9_Nluc membranes)
T2 construct: host or cells: HEK293T; membrane preparation
T2 sequence (P51686 1-369): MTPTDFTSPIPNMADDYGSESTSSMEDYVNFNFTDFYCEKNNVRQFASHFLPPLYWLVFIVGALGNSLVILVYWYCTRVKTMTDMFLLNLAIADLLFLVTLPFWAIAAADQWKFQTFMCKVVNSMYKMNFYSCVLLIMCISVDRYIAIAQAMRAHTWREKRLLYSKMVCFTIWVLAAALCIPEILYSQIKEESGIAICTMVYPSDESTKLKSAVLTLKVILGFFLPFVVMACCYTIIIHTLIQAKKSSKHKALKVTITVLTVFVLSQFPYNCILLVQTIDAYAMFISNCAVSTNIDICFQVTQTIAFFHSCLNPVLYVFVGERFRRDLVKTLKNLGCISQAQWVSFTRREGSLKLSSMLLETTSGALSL
Description: as §1, with “The algorithms for one-site saturation binding from PRISM9.5 (GraphPad) were utilized to analyze total, nonspecific, and specific binding.” left out, “For selectivity studies with CCR2, CCR7, CCR9, and CXCR1, we modified the procedure described above.” left out

CXCR1 = target: T3, CXCR1 (Homo sapiens, UniProt P25024); experiment: Membrane-based NanoBRET saturation assay, selectivity (CXCR1_Nluc membranes); assay type: binding; conditions: cell-free
T3 construct: host or cells: HEK293T, transient; membrane preparation
T3 sequence (P25024 1-350): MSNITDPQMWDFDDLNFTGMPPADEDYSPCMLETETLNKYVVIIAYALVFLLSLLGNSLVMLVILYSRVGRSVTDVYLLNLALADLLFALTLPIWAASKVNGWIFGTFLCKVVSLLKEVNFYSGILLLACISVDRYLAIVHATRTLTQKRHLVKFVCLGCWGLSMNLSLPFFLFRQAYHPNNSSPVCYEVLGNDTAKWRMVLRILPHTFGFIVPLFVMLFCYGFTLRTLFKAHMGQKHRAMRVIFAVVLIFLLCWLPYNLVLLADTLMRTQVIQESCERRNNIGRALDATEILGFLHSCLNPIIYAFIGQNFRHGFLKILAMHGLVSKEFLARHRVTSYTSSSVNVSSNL
Description: as §1

In the case of Cc1ccc([C@H](Nc2c(Nc3cccc(C(=O)NCc4cn(CCOCCOCCOCCNC(=O)c5ccc(C(=O)[O-])c(-c6c7ccc(=[N+](C)C)cc-7oc7cc(N(C)C)ccc67)c5)nn4)c3O)c(=O)c2=O)C(C)(C)C)o1 [9a, (R)-4-((2-(2-(2-(2-(4-((3-((2-((2,2-Dimethyl-1-(5-methylfuran-2-yl)propyl)amino)-3,4-dioxocyclobut-1-en-1-yl)amino)-2-hydroxybenzamido)methyl)-1H-1,2,3-triazol-1-yl)ethoxy)ethoxy)ethoxy)ethyl)carbamoyl)-2-(6-(dimethylamino)-3-(dimethyliminio)-3H-xanthen-9-yl)benzoate], the Kd (CXCR2) is reported as 0.00417 ± 0.0008 µM, the “binding to CCR9” value (CCR9) is reported as “no significant binding” and the Kd (CXCR1; CXCR1_Nluc membranes) is reported as 0.198 ± 0.029 µM. For the same compound, the “selectivity for CXCR2 compared to CXCR1” value (CXCR1; from Kd values) was about 50 fold.
